Experimental data as given in patent US12174198B2, “Methods of characterizing condensate-associated characteristics of compounds and uses thereof” (Dewpoint Therapeutics, Inc., priority 2019, dated 2024).

Tests used:
FUS-SNAP condensates = biological target: T1, FUS-SNAP condensates (Homo sapiens, UniProt P35637); assay: Fluorescence imaging of dye partitioning in FUS-SNAP condensates (I-in, I-out); format: physicochemical; settings: for Intensity Inside with Dye Average / Intensity Inside with Dye 1 / Intensity Inside with Dye 2 / Intensity Inside with Dye 3 / Intensity Inside Dye-No Dye: inside FUS-SNAP condensate; for Intensity Inside with Dye Average / Intensity Inside with Dye 1 / Intensity Inside with Dye 2 / Intensity Inside with Dye 3 / Intensity Outside with Dye Average / Intensity Outside with Dye 1 / Intensity Outside with Dye 2 / Intensity Outside with Dye 3: 5 μM protein; for Intensity Inside with Dye Average / Intensity Outside with Dye Average: average of three images; for Intensity Inside with Dye Average / Intensity Inside with Dye 1 / Intensity Inside with Dye 2 / Intensity Inside with Dye 3 / Intensity Inside Dye-No Dye / Intensity Outside with Dye Average / Intensity Outside with Dye 1 / Intensity Outside with Dye 2 / Intensity Outside with Dye 3 / Intensity Outside (Dye-No Dye): one day of experiments; for Intensity Inside with Dye 1 / Intensity Outside with Dye 1: image 1; for Intensity Inside with Dye 2 / Intensity Outside with Dye 2: image 2; for Intensity Inside with Dye 3 / Intensity Outside with Dye 3: image 3; for Intensity Inside Dye-No Dye / Intensity Outside (Dye-No Dye): background corrected; for Intensity Outside with Dye Average / Intensity Outside with Dye 1 / Intensity Outside with Dye 2 / Intensity Outside with Dye 3 / Intensity Outside (Dye-No Dye): outside FUS-SNAP condensate
T1 sequence (P35637 1-526): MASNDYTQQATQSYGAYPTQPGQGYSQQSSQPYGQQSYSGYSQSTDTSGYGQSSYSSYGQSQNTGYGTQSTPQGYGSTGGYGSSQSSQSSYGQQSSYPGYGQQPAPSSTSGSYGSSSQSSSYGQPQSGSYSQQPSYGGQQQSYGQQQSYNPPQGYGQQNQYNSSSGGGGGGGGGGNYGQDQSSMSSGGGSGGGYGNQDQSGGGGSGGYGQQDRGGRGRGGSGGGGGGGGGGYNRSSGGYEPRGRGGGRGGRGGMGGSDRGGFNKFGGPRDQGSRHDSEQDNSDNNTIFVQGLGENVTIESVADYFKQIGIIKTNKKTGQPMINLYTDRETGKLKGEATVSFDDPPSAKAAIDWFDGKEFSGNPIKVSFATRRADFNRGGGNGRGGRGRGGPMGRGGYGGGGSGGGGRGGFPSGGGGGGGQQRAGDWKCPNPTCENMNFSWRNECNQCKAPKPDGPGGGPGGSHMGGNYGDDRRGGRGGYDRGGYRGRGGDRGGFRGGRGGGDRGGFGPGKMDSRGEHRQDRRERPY
Protocol: (§1) All dye-stocks were stored as 1 mM solutions in 100% DMSO. The dyes were dissolved in dilution buffer (DB: 14.7 mM Tris, pH 7.25, 1 mM DTT) to yield 11.765 μM dye in 1.1765 DMSO. 17 μl of dye was distributed in a 384 well non-binding plate (Greiner).
(§2) Either SNAP-tagged FUS protein or tag-free PGL-3 protein was thawed at room temperature for at least 10 min, and the buffer was exchanged to partitioning buffer (PB: 50 mM Tris pH 7.25, 500 mM KCl, 5% Glycerol, and 1 mM DTT). The protein was then diluted to 33.3 μM in PB. 3 μl of protein solution were added to the 384 well plate to initiate phase separation, yielding 20 μl of 5 μM protein and 10 μM dye in 75 mM KCl, 0.75% Glycerol, 20 mM Tris, 1 mM DTT, and 1% DMSO or for no dye control reactions, 20 μl of 5 μM protein in 75 mM KCl, 0.75% Glycerol, 20 mM Tris, 1 mM DTT.
(§3) A spinning disk confocal microscope was used to acquire images of the samples. A 60×oil high-NA objective lens was used to capture the condensate droplets. The laser power was set to 20% and the exposure times were adjusted to the fluorescence emission intensity specific for each dye. Exposure times ranged from 1-1000 ms. Appropriate filter settings were used, matching the excitation and emission spectra of the respective dyes. Three images per well were taken. The background signal of protein droplets in the absence of dye was recorded for all applied imaging conditions.
(§4) Fluorescence intensity was measured inside one exemplary target condensate (Intensity inside, I-in) per image and in a region next to the exemplary target condensate (Intensity outside, I-out) by hand using the image analysis software Fiji. An example depicting the regions measured is shown FIG. 2A. Three I-in and three I-out values were measured in total for each dye in each experiment and were averaged. The measured I-in and I-out values for FUS-SNAP condensates on one day of experiments are shown in Table 2 and Table 3, respectively. The measured I-in and I-out values for PGL-3 condensates on one day of experiments are shown in Table 4 and Table 5, respectively. All values were background corrected, based on the background images (no dye controls) taken with the same microscope conditions.
(§5) The ratios of the average intensity measured in the target condensates and outside of the target condensates were calculated by dividing I-in by I-out, although dividing I-out by I-in could also have been used. The I-in:I-out ratios determined from the two different days of experiments were then averaged. The average I-in:I-out ratios for FUS-SNAP condensates are shown in FIG. 3 and the average I-in:I-out ratios for PGL-3 condensates are shown in FIG. 4. The standard deviation between the two experiments is represented by the error bars in FIG. 3 and FIG. 4.

PGL-3 condensates = biological target: T2, PGL-3 condensates (Caenorhabditis elegans, UniProt G5EBV6); assay: Fluorescence imaging of dye partitioning in PGL-3 condensates (I-in, I-out); format: physicochemical; settings: for Ratio of intensity inside:outside PGL-3 Condensates Day 1 / Ratio of intensity inside:outside PGL-3 Condensates Day 2: I-in:I-out; for Ratio of intensity inside:outside PGL-3 Condensates Day 1 / Ratio of intensity inside:outside PGL-3 Condensates Day 2 / Intensity Inside with Dye Average / Intensity Inside with Dye 1 / Intensity Inside with Dye 2 / Intensity Inside with Dye 3 / Intensity Outside with Dye Average / Intensity Outside with Dye 1 / Intensity Outside with Dye 2 / Intensity Outside with Dye 3: 10 μM dye; for Intensity Inside with Dye Average / Intensity Inside with Dye 1 / Intensity Inside with Dye 2 / Intensity Inside with Dye 3 / Intensity Inside Dye-No Dye: inside PGL-3 condensate; for Intensity Inside with Dye Average / Intensity Inside with Dye 1 / Intensity Inside with Dye 2 / Intensity Inside with Dye 3 / Intensity Outside with Dye Average / Intensity Outside with Dye 1 / Intensity Outside with Dye 2 / Intensity Outside with Dye 3: 5 μM protein; for Intensity Inside with Dye Average / Intensity Outside with Dye Average: average of three images; for Intensity Inside with Dye Average / Intensity Inside with Dye 1 / Intensity Inside with Dye 2 / Intensity Inside with Dye 3 / Intensity Inside Dye-No Dye / Intensity Outside with Dye Average / Intensity Outside with Dye 1 / Intensity Outside with Dye 2 / Intensity Outside with Dye 3 / Intensity Outside (Dye-No Dye): one day of experiments; for Intensity Inside with Dye 1 / Intensity Outside with Dye 1: image 1; for Intensity Inside with Dye 2 / Intensity Outside with Dye 2: image 2; for Intensity Inside with Dye 3 / Intensity Outside with Dye 3: image 3; for Intensity Inside Dye-No Dye / Intensity Outside (Dye-No Dye): background corrected; for Intensity Outside with Dye Average / Intensity Outside with Dye 1 / Intensity Outside with Dye 2 / Intensity Outside with Dye 3 / Intensity Outside (Dye-No Dye): outside PGL-3 condensate
T2 sequence (G5EBV6 1-693): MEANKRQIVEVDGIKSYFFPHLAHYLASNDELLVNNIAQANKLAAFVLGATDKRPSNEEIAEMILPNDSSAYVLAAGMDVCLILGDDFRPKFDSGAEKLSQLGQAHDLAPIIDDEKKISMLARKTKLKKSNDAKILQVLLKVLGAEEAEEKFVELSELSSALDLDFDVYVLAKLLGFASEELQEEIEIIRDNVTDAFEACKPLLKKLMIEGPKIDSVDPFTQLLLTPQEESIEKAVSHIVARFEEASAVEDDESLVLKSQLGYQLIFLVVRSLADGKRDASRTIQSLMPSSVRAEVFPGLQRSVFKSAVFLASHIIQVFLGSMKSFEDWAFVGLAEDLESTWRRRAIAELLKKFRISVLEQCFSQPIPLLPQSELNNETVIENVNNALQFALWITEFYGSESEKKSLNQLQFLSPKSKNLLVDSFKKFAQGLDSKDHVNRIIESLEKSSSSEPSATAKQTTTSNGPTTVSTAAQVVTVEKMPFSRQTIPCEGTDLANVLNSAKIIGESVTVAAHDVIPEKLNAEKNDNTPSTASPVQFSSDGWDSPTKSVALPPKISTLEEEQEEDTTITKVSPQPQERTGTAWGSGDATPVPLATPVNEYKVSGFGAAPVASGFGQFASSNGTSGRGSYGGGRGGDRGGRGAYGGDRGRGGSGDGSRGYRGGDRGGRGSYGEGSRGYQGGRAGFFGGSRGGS
Protocol: as §1, §2, §3, §4, §5

| SMILES | Ratio of intensity inside:outside FUS-SNAP Condensates Day 1 (FUS-SNAP condensates; I-in:I-out, 10 μM dye) | Intensity Inside with Dye Average (FUS-SNAP condensates; 10 μM dye) | Intensity Inside with Dye 1 (FUS-SNAP condensates; 10 μM dye) | Intensity Inside with Dye 2 (FUS-SNAP condensates; 10 μM dye) | Intensity Inside with Dye 3 (FUS-SNAP condensates; 10 μM dye) | Intensity Inside Dye-No Dye (FUS-SNAP condensates) | Intensity Outside with Dye Average (FUS-SNAP condensates; 10 μM dye) | Intensity Outside with Dye 1 (FUS-SNAP condensates; 10 μM dye) | Intensity Outside with Dye 2 (FUS-SNAP condensates; 10 μM dye) | Intensity Outside with Dye 3 (FUS-SNAP condensates; 10 μM dye) | Intensity Outside (Dye-No Dye) (FUS-SNAP condensates) | Ratio of intensity inside:outside PGL-3 Condensates Day 1 (PGL-3 condensates) | Ratio of intensity inside:outside PGL-3 Condensates Day 2 (PGL-3 condensates) | Intensity Inside with Dye Average (PGL-3 condensates) | Intensity Inside with Dye 1 (PGL-3 condensates) | Intensity Inside with Dye 2 (PGL-3 condensates) | Intensity Inside with Dye 3 (PGL-3 condensates) | Intensity Inside Dye-No Dye (PGL-3 condensates) | Intensity Outside with Dye Average (PGL-3 condensates) | Intensity Outside with Dye 1 (PGL-3 condensates) | further results |
| --- | --- | --- | --- | --- | --- | --- | --- | --- | --- | --- | --- | --- | --- | --- | --- | --- | --- | --- | --- | --- | --- |
| CC(=O)Oc1ccc2c(c1)Oc1cc(OC(C)=O)ccc1C21OC(=O)c2ccccc21 [Dye 9, Fluorescein diacetate] | 1.9 | 6034.1 | 5836.4 | 6036.1 | 6229.9 | 1821.5 | 1485.0 | 1487.5 | 1414.8 | 1552.6 | 934.8 | 2.2 | −0.4 | 828.6 | 824.1 | 801.2 | 860.4 | 231.3 | 269.2 | 269.6 | Ratio of intensity inside:outside FUS-SNAP Condensates Day 2 (FUS-SNAP condensates; I-in:I-out, Day 2, 10 μM dye): 1.5; Ratio of intensity inside:outside FUS-SNAP Condensates Average (FUS-SNAP condensates; I-in:I-out, average of two days, 10 μM dye): 1.7; Intensity Outside with Dye 2 (PGL-3 condensates): 264.9; Intensity Outside with Dye 3 (PGL-3 condensates): 273.2; Intensity Outside (Dye-No Dye) (PGL-3 condensates): 106.3 |
| O=C1OC2(c3ccc(O[C@@H]4O[C@H](CO)[C@H](O)[C@H](O)[C@H]4O)cc3Oc3cc(O[C@@H]4O[C@H](CO)[C@H](O)[C@H](O)[C@H]4O)ccc32)c2ccccc21 [Dye 12, Fluorescein di(β-D-galacto-pyranoside)] | −2.3 | 478.0 | 456.2 | 508.6 | 469.3 | −19.5 | 148.6 | 150.1 | 142.8 | 152.9 | 8.5 | 2.1 | 1.9 | 690.1 | 689.4 | 656.9 | 723.9 | 92.8 | 206.4 | 208.4 | Intensity Outside with Dye 2 (PGL-3 condensates): 203.2; Intensity Outside with Dye 3 (PGL-3 condensates): 207.7; Intensity Outside (Dye-No Dye) (PGL-3 condensates): 43.5 |
